Measurements as given in article PMC7822874, “Chemoprotective antimalarials identified through quantitative high-throughput screening of Plasmodium blood and liver stage parasites” (Scientific Reports, 2021).

Each molecule was assayed on Plasmodium falciparum Dd2 asexual blood stage parasites (assay: microbe, parasite or virus in culture). Settings: Plasmodium falciparum, DD2, Erythrocyte, 72 h.
Set-up: species or system Plasmodium falciparum Dd2 in human erythrocytes; single determination (one 11-point concentration-response curve)

Molecule `O=C(c1cccs1)c1cn(CCOc2ccc(Cl)cc2)c2ccccc12` [NCGC00101601-01] has an AC50 of 5.96 µM.

Same assay, conditions: Plasmodium falciparum, DD2, Erythrocyte, 72 h; read-out: AC50

In order of rising AC50:
1. COc1ccc(-c2nc3c(c(SCc4ccc(Br)cc4)n2)Cc2c(CO)cnc(C)c2O3)cc1 [NCGC00122580-01]  0.0668 µM
2. COc1cc(O)c(C(CCN2CCCC(C)C2)c2ccc3c(c2)OCO3)c(OC)c1 (centres unmarked) [MLS000879506-01]  0.531 µM
3. COc1ccc(N2CCN(C(=O)CSc3nc(-c4ccc(C(C)C)cc4)no3)CC2)cc1 [NCGC00127936-01]  0.531 µM
4. CC(C)c1ccc(-c2noc(SCC(=O)N3CCN(c4ccc(F)cc4)CC3)n2)cc1 [NCGC00127934-01]  0.668 µM
5. CCOC(=O)c1c(C)[nH]c(C)c1[S+](=O)([O-])N1CCCC(C(=O)N2CCN(c3cccc(C)c3C)CC2)C1 (centres unmarked) [NCGC00138103-01]  1.33 µM
6. O=C1N=C(NC2CCCC2)C2(CCN(CC3CC3)C2)N1c1cc(F)cc(F)c1 (centres unmarked) [NCGC00374289-01]  1.5 µM
7. O=C1CC2(CCN(CC3CCCCC3)CC2)Oc2cc(Cl)ccc21 [NCGC00476867-01]  1.5 µM
8. Clc1ccc(NNc2ccnc3cc(Cl)ccc23)cc1 [MLS000537447-01]  1.5 µM
9. Cc1ccc(C2=CC(c3ccc(Cl)cc3)n3nc(-c4ccc(C)cc4)nc3N2)cc1 (centres unmarked) [NCGC00105128-01]  1.68 µM
10. FC(F)(F)CN1C2CCC1CN(c1nnc(Cl)c3ccccc13)C2 [NCGC00375660-01]  2.11 µM
11. Cc1ccc(CN2CCCN(Cc3ccncc3)C(c3ccccc3)CC(=O)NCC2)s1 (centres unmarked) [NCGC00467183-01]  2.66 µM
12. COc1ccccc1CNC[C@H]1O[C@H](Cc2cc(CN(C)Cc3ccccc3)on2)CC[C@@H]1O [NCGC00393289-01]  2.99 µM
13. CC(C)c1ccccc1NC(=O)Cn1cccc1-c1nc(-c2ccc(F)cc2)no1 [NCGC00445438-01]  2.99 µM
14. C=C(C)COc1ccc(-c2n[nH]cc2Oc2ccccc2OCC)c(O)c1 [MLS000083085-01]  2.99 µM
15. CCCCCCSc1ccc([C@H]2N[C@@](Cc3ccccc3)(C(=O)OC)[C@H]3C(=O)N(CC)C(=O)[C@@H]23)cc1 [MLS001362744-01]  3.35 µM
16. O=C(CCC1CCN(Cc2cccc3c2OCO3)CC1)NCc1cccc(C(F)(F)F)c1 [NCGC00426823-01]  3.76 µM
17. COc1ccc(-c2n[nH]c3ncc(-c4cccnc4)nc23)cc1F [NCGC00419143-01]  3.85 µM
18. O=C1N=C(NC2CCCCC2)C2(CCN(Cc3ccc(F)cc3)C2)N1c1cc(F)cc(F)c1 (centres unmarked) [NCGC00374193-01]  4.22 µM
19. CCC(=O)C1=C(c2ccc(OC)c(OC)c2)N(C(=O)CC)n2c(CC)nnc2S1 [NCGC00137256-01]  4.73 µM
20. O=C1CC(c2ccccc2)N(Cc2ccncc2)CCCN([S+](=O)([O-])c2cccc(F)c2)CCN1 (centres unmarked) [NCGC00467202-01]  4.73 µM
21. CC1Cn2c(nnc2-c2cc3ccccc3cc2O)S1 (centres unmarked) [MLS000066435-01]  4.73 µM
22. COc1ccc(S(=O)(=O)N2CCCCCC2)cc1NC(=O)c1c2c(nc3ccccc13)CCN(Cc1ccccc1)C2 [MLS000393062-01]  4.73 µM
23. CCCN(CCC)CC(O)Cn1cc(/C=C/C(=O)c2ccc(C)cc2)c2ccccc21 (centres unmarked) [NCGC00114909-01]  4.73 µM
24. COc1ccc(-c2cc(C(=O)Nc3cc(OC)cc(C(=O)Nc4cccc(C(F)(F)F)c4)c3)[nH]n2)cc1 [MLS003105955-01]  5.31 µM
25. O=C1N(c2ccccc2C(F)(F)F)O[C@@]1(c1ccccc1)C1CCCCC1 [MLS002206598-01]  5.31 µM
26. Cc1cccc(N2CCN(c3cccc(C)c3)C2c2cccnc2)c1 [MLS000105583-01]  5.96 µM
27. CCOC(=O)c1c(CN2CCN(CCO)CC2)n(-c2ccccc2)c2cc(Br)c(O)cc12 [MLS000778151-01]  5.96 µM
28. CCC(C)c1ccc(N(C(=O)c2ccco2)C(C(=O)NC2CCCC2)c2cccnc2)cc1 (centres unmarked) [MLS001222477-01]  6.68 µM
29. CCOC(=O)N1CCN(C(=O)c2ccc3c(c2)N(C)C(=O)/C(=C\c2ccc(OCC)c(OC)c2)S3)CC1 [MLS001030648-01]  6.68 µM
30. CCN(CC)S(=O)(=O)c1ccc(N2CCCCC2)c(NC(=O)C2=COCCO2)c1 [MLS001150729-01]  6.68 µM
31. COc1ccc(C(C)NC(S)=NC2CCCC2)cc1OC (centres unmarked) [MLS000581238-01]  6.68 µM
32. CC1C(=O)C(C)C(c2cc(Cl)ccc2O)NC1c1cc(Cl)ccc1O (centres unmarked) [MLS001197743-01]  6.68 µM
33. COc1ccc(S(=O)(=O)N2CCN(/C(S)=N/C3CCCCC3)CC2)cc1 [MLS000690529-01]  6.68 µM
34. COc1ccc2nc(N(Cc3cccnc3)C(=O)CCc3ccccc3)sc2c1 [NCGC00136611-01]  6.68 µM
35. COc1ccccc1NS(=O)(=O)c1cc(NC(=O)c2cccc(S(=O)(=O)N(C)C)c2)ccc1N1CCOCC1 [MLS002162226-01]  7.5 µM
36. COc1cccc(CN2CCCN(Cc3ccncc3)C(c3ccccc3)CC(=O)NCC2)c1 (centres unmarked) [NCGC00467185-01]  7.5 µM
37. Cc1noc(C)c1[S+](=O)([O-])N1CCCN(Cc2ccncc2)C(c2ccccc2)CC(=O)NCC1 (centres unmarked) [NCGC00467205-01]  7.5 µM
38. Cc1cc(Nc2ccc(Br)cc2)n2nc(C)nc2n1 [MLS000116653-01]  7.5 µM
39. CCn1ccc2ccc(CN3CCCC(O)(CN4CCCC4)C3)cc21 (centres unmarked) [NCGC00441341-01]  7.5 µM
40. O=C1N=C(NC2CCCC2)C2(CCN(Cc3ccccc3)C2)N1c1cc(F)cc(F)c1 (centres unmarked) [NCGC00374299-01]  7.5 µM
41. c1ccc(Cn2c(Sc3nnnn3-c3ccccc3)nnc2-c2ccccc2)cc1 [MLS000052243-01]  7.5 µM
42. Cc1ccc(CN2CCCN(Cc3ccncc3)C(c3ccccc3)CC(=O)NCC2)o1 (centres unmarked) [NCGC00467180-01]  7.5 µM
43. COc1ccc(OC)c(S(=O)(=O)Nc2ccc(O)c3ccccc23)c1 [MLS001045548-01]  8.41 µM
44. COc1cccc(CN2C(=O)OC3(CCN(Cc4c[nH]c5ccccc45)CC3)C2(C)c2cccnc2)c1 (centres unmarked) [NCGC00415482-01]  8.41 µM
45. CC(C)CN1C(=O)c2ccccc2C(C(=O)Nc2nccs2)C12CCCC2 (centres unmarked) [NCGC00423343-01]  8.41 µM
46. O=C(C[C@@H]1CCNC[C@@H]1Cc1cc(CSc2ccccc2)on1)N1CCN(c2ccccc2)CC1 [NCGC00400854-01]  8.41 µM
47. CC(=O)Nc1nc2ccccc2n1Cc1ccc(Cl)cc1 [MLS000779302-01]  8.41 µM
48. CN1CCOc2c(C(=O)NCc3cccnc3)cc(-c3cccc4[nH]ccc34)cc21 [NCGC00416962-01]  8.63 µM
49. CCOC(=O)c1c(CN(CC)CC)n(C)c2cc(Br)c(O)cc12 [MLS000778381-01]  9.44 µM
50. N#Cc1nn(-c2c(Cl)cc(C(F)(F)F)cc2Cl)c(N)c1[S+]([O-])C(F)(F)F (centres unmarked) [NCGC00094574-06]  9.44 µM
51. O=C(NCC1CCCCC1)c1cc2ccccc2cc1O [MLS001141978-01]  9.44 µM
52. COc1ccc(CNCc2ccc(C)s2)cc1OCC(O)CN1CCCCC1 (centres unmarked) [NCGC00428936-01]  9.44 µM
53. CC1CCN(CC2CCCCCN2C(=O)Cc2ccccc2)CC1 (centres unmarked) [NCGC00456721-01]  9.44 µM
54. CC(C)Cn1c(-c2ccco2)nc2c(c(=O)c3ccccc3n2C)c1=O [MLS000331990-01]  9.44 µM
55. O=C(NC1CCCC1)c1ccc(OC2CCN(CCCC(F)(F)F)CC2)c(Cl)c1 [NCGC00429036-01]  9.44 µM
56. CCN(CC)C(=O)C[C@@H]1c2nc(NC(=O)c3cccc(F)c3)sc2C[C@@H]2[C@](C)(CO)[C@H](O)CC[C@]21C [NCGC00394316-01]  9.44 µM
57. Cc1nn2c3c(cnc2c1-c1ccccc1)C(=O)CC(c1ccco1)C3 (centres unmarked) [MLS000080714-01]  9.44 µM
58. Cc1nn2c(c1-c1ccccc1[S+](C)(=O)[O-])N(CCC(C)C)CCC2 [NCGC00420381-01]  9.68 µM
59. Oc1ccccc1-c1cc(C2=CCOCC2)c2cncn2c1 [NCGC00412161-01]  9.68 µM
60. O=C(c1cccc(O)c1)N1CC=C(c2cnc3cnc(-c4ccccc4)cn23)CC1 [NCGC00414040-01]  9.68 µM
61. CCOC(=O)c1cc(C)n(Cc2ccc(OCC)c(OC)c2)c1C [MLS000521227-01]  10.6 µM
62. CCn1c(=O)c2cc(C(=O)N(CC(C)C)CC(C)C)sc2c2ccccc21 [NCGC00110427-01]  10.6 µM
63. COc1ccc(CN2CC3(CCN(C(=O)Nc4ccc(OC)c(F)c4)CC3)C2=O)cc1 [NCGC00460264-01]  10.6 µM
64. CCC(CC)c1cc([C@H]2CN3CC[C@H]2C[C@@H]3CNC(=O)c2ccccc2)nc(-c2ccncc2)n1 [NCGC00400223-01]  10.6 µM
65. COc1ccc(-n2cc(CNC3CCN(C)CC3)c(-c3cccc(F)c3)n2)cc1 [MLS000732463-01]  10.6 µM
66. CCCn1c(C)cnc1CC1CCCN([S+](=O)([O-])c2cc(OC)ccc2OC)C1 (centres unmarked) [NCGC00469684-01]  10.6 µM
67. CCC(C)NC(=O)c1ccccc1NC(=O)C1COc2ccccc2O1 (centres unmarked) [MLS000708698-01]  10.6 µM
68. COc1ccc(C(=O)N[C@@H]2CN(Cc3cccc(OC)c3)CCC[C@H]2O)cc1 [NCGC00401653-01]  10.9 µM
69. Cc1noc(C)c1-c1cc2cc(CN(C)C)oc2c(Nc2cccnc2)n1 [NCGC00417472-01]  12.2 µM
70. CCOC(=O)c1ccccc1NC1c2ccccc2C(=O)N1C1CCN(C(=O)OCC)CC1 (centres unmarked) [MLS000878310-01]  13.3 µM
71. COc1ccc(OC)c(CN2CC(Oc3ccccc3C(=O)NCc3ccccc3)C2)c1 [NCGC00458087-01]  13.3 µM
72. O=C1CC2(CCN(Cc3ccccc3)CC2)Oc2ccccc21 [NCGC00476829-01]  13.7 µM
73. CN1Cc2ccc(Nc3ccccc3)nc2C(C)(C(=O)NCc2ccc3c(c2)OCO3)C1 (centres unmarked) [NCGC00414588-01]  13.7 µM
74. CC(C)CN(Cc1cc(=O)oc2cc3c(cc12)CCCC3)CC(C)C [MLS000763058-01]  15 µM
75. Cc1ccccc1OCCSc1nc2ccc(NC(=O)c3ccccc3)cc2s1 [NCGC00118500-01]  15 µM
76. CC1=C[C@@H](CNCCN(C)C)[C@H](C(C)C)C[C@H]1Cc1nnc(C(C)(C)C)o1 [NCGC00401821-01]  15.3 µM
77. CC(=O)Oc1ccc2ccccc2c1C(NC(=O)C(C)C)c1cccc([N+](=O)[O-])c1 (centres unmarked) [MLS000526079-01]  16.8 µM
78. COc1cccc(-c2nc(-c3c(C)noc3C)cc3c2cc(C)n3CCN(C)C)c1 [NCGC00417217-01]  17.2 µM
79. O=C1c2cc(N3CCOCC3)nc(-c3ccccc3)c2CN1Cc1ccccc1 [NCGC00419273-01]  21.7 µM
